Test results from USRE36831E, “Iron-pyridone complexes for anemia” (priority 1983, dated 2000).
Read-outs that look alike come from different tables or passages of the source.

Key:
human erythrocytes = conditions: pH 7.4
Procedure: The accumulation of iron by human erythrocytes which are associated with iron complexes of various of the compounds referred to in Example 1 was studied by incubating for 1 hour at 37° C. a 5% suspension of erythrocytes in a medium consisting of the ^59 Fe labelled iron complex (10^-3 M) in aqueous sodium chloride (130 mM) buffered to pH 7.4 by tris hydrochloride (2 ml) (the iron complex was prepared in situ by an analogous procedure to that described in Example 1). Following this period of incubation, an aliquot of the erythrocyte/medium mixture was placed above a layer of silcone oil and the erythrocytes separated by centrifugation through the oil. The ^59 Fe levels associated with the erythrocytes and the incubation medium were then counted.

[1] = Partition coefficient between n-octanol and aqueous tris hydrochloride (20 mM, pH 7.4) at 20° C.; conditions: for Partition coefficient KOUT, free compound: 10^-4 M, n-octanol/tris hydrochloride 20 mM pH 7.4, 20° C.; for Kpart values (in words): n-octanol partition; for logD at 100 µM: n-octanol/tris buffer, pH 7.4
Procedure: (§1) The partition coefficient Kpart, being the ratio (concentration of compound in n-octanol)/(concentration of compound in aqueous phase) on partition between n-octanol and aqueous tris hydrochloride (20 mM, pH 7.4; tris represents 2-amino-2-hydroxymethylpropane 1,3-diol), is measured at 20° C. for the 3:1 iron(III) complexes of each of the compounds listed in Table 1 and also for the iron-free compound (at 10^-4 M) by spectrophotometry. The solutions of the complexes are either produced by dissolving the pre-formed complex in the aqueous tris hydrochloride or are prepared in situ in the buffer by the admixture of a 3:1 molar ratio of the pyridone and ferric chloride, the pH thereafter being readjusted to 7.4 if necessary (the same product will be obtained in the buffer solution irrespective of whether the pyridone used is in a salt form or not). Acid washed glassware is used throughout and, following mixing of 5 ml of the 10^-4 M aqueous solution with 5 ml of n-octanol for 1 minute, the aqueous n-octanol mixture is centrifuged at 1,000 g for 30 seconds. The two resulting phases are separated for a concentration determination by spectrophotometry on each. For the free hydroxypyridones, the range 220-340 nm is used for concentration determinations whilst for the iron complexes the range 340-640 nm is used.

physchem = conditions: n-octanol/tris buffer, pH 7.4
Procedure: as §1

[2] = n-octanol/tris buffer, 100 µM, pH 7.4
Procedure: as §1

haemoglobin = test: Ability of complexes to bind to haemoglobin (elution profile of 59Fe label on PD-10 column); type: binding; conditions: 59Fe-labelled 3:1 neutral complex, 1 mM
Procedure: The ability of the complexes of 1-acetyl-3-hydroxypyrid-2-one and 1-ethyl-3-hydroxy-6-hydroxymethylpyrid-4-one to bind to haemoglobin is investigated by studying the elution profile of a ^59 Fe label when a mixture of haemoglobin and the ^59 Fe-labelled 3:1 (pyridone:iron) neutral complex (at 1 mM concentration) is applied to a PD-10 column (Sephadex […] gel permeation column - Pharmacia).

apotransferrin = test: Ability of iron complexes to donate iron to apotransferrin; type: biochemical; conditions: apotransferrin 10^-4 M, complex 10^-4 M, tris 50 mM pH 7.4, 37° C., 10 minutes
Procedure: Apotransferrin (10^-4 M) and the iron complex of 1-ethyl-3-hydroxy-6-hydroxymethylpyrid-4-one (10^-4 M; prepared as described in Example 1) were incubated together in tris hydrochloride (50 mM, buffered to pH 7.4) at 37° C. for 10 minutes when a 1 ml aliquot was removed from the medium and added to a PD10 column. 0.5 ml fractions were collected directly into scintillation vials for counting. […] A similar value was obtained with the complex of 3-hydroxy-1-(2'-hydroxyethyl)-2-methylpyrid-4-one but with the complex of 1-acetyl-3-hydroxypyrid-2-one over 80% of the iron was removed within 10 minutes.

inverted rat jejunal sac = test: In vitro permeation of rat jejunal sac by iron complexes (iron uptake into serosal space); conditions: relative to ferric chloride as 1; Krebs Ringer buffer, 37° C., up to 1 hour
Text: Rats (male Sprague Dawley, 60 g) were killed and the jejunum removed, everted and cut into three segments (4 cm length). […] The contents of the sac were counted for ^59 Fe and measured spectrophotometrically.

For `COC(=O)CCn1ccc(=O)c([O-])c1C.COC(=O)CCn1ccc(=O)c([O-])c1C.COC(=O)CCn1ccc(=O)c([O-])c1C.[Fe+3]` [Fe^III complex of 3-hydroxy-1-(2'-methoxycarbonylethyl)-2-methylpyrid-4-one], the “Amount of complex entering erythrocytes” value (human erythrocytes) was 25 n.mole.

For `CC(C)NC(=O)Cn1cccc(O)c1=O` [3-hydroxy-1-[N-(2'-methylethyl)-carbamoylmethyl]-pyrid-2-one], the “Partition coefficient KOUT, free compound” value [1] was 0.34.

In the case of “Fe^III complex of 1-carboxymethyl-3-hydroxy-2-methylpyrid-4-one”, the “Amount of complex entering erythrocytes” value (human erythrocytes) is reported as less than 5 n.mole and the “Kpart values (in words)” value [1] is reported as “low Kpart values”.

`Cc1c(O)c(=O)ccn1CC(=O)O` [1-carboxymethyl-3-hydroxy-2-methylpyrid-4-one] showed a logD at 100 µM (physchem) of less than -2.7.

For `CCCCNC(=O)Cn1cccc([O-])c1=O.CCCCNC(=O)Cn1cccc([O-])c1=O.CCCCNC(=O)Cn1cccc([O-])c1=O.[Fe+3]` [Fe^III complex of 1-(N-butylcarbamoylmethyl)-3-hydroxypyrid-2-one], the “Amount of complex entering erythrocytes” value (human erythrocytes) was 105 n.mole.

With `CC(C)NC(=O)Cn1cccc([O-])c1=O.CC(C)NC(=O)Cn1cccc([O-])c1=O.CC(C)NC(=O)Cn1cccc([O-])c1=O.[Fe+3]` [Fe^III complex of 3-hydroxy-1-[N-(2'-methylethyl)-carbamoylmethyl]-pyrid-2-one] the “Amount of complex entering erythrocytes” value (human erythrocytes) was 52 n.mole.

In the case of `COC(=O)Cn1cccc([O-])c1=O.COC(=O)Cn1cccc([O-])c1=O.COC(=O)Cn1cccc([O-])c1=O.[Fe+3]` [Fe^III complex of 3-hydroxy-1-methoxycarbonylmethylpyrid-2-one], the “Amount of complex entering erythrocytes” value (human erythrocytes) is reported as 230 n.mole.

For `CCOC(=O)Cn1cccc([O-])c1=O.CCOC(=O)Cn1cccc([O-])c1=O.CCOC(=O)Cn1cccc([O-])c1=O.[Fe+3]` [Fe^III complex of 1-ethoxycarbonylmethyl-3-hydroxypyrid-2-one], the “Amount of complex entering erythrocytes” value (human erythrocytes) was 10 n.mole.

For `Cn1cc([O-])c(=O)cc1CO.Cn1cc([O-])c(=O)cc1CO.Cn1cc([O-])c(=O)cc1CO.[Fe+3]` [Fe^III complex of 3-hydroxy-6-hydroxymethyl-1-methylpyrid-4-one], the “Amount of complex entering erythrocytes” value (human erythrocytes) was less than 5 n.mole.

For `Cc1c(O)c(=O)ccn1CCN` [1-(2'-aminoethyl)-3-hydroxy-2-methylpyrid-4-one], the logD at 100 µM (physchem) was less than -2.7.

With “3-hydroxy-5-hydroxymethyl-1-methylpyrid-4-one” the “Partition coefficient KOUT, free compound” value [2] was 0.03.

With `CNC(=O)Cn1cccc(O)c1=O` [3-hydroxy-1-(N-methylcarbamoylmethyl)pyrid-2-one] the “Partition coefficient KOUT, free compound” value [1] was 0.06.

For `COC(=O)Cn1cccc(O)c1=O` [3-hydroxy-1-methoxycarbonylmethylpyrid-2-one], the logD at 100 µM (physchem) was -0.699.

With `CCn1cc([O-])c(=O)cc1CO.CCn1cc([O-])c(=O)cc1CO.CCn1cc([O-])c(=O)cc1CO.[Fe+3]` [Fe^III complex of 1-ethyl-3-hydroxy-6-hydroxymethylpyrid-4-one] the haemoglobin binding ability (haemoglobin) was “no detectable haemoglobin binding ability”, the “iron removed from the iron complex” value (apotransferrin) was “over 45%” and the “Amount of complex entering erythrocytes” value (human erythrocytes) was 26 n.mole.

In the case of `Cc1c([O-])c(=O)ccn1CCCO.Cc1c([O-])c(=O)ccn1CCCO.Cc1c([O-])c(=O)ccn1CCCO.[Fe+3]` [Fe^III complex of 3-hydroxy-1-(3'-hydroxypropyl)-2-methylpyrid-4-one], the “Amount of complex entering erythrocytes” value (human erythrocytes) is reported as 30 n.mole.

With `[Cl][Fe]([Cl])[Cl]` [FeCl3, ferric chloride] the “Relative Iron Uptake” value (inverted rat jejunal sac) was 1.

Molecule `CC(=O)OCCCCCn1ccc(=O)c(O)c1C` [1-(5'-acetoxypentyl)-3-hydroxy-2-methylpyrid-4-one] has a logD at 100 µM (physchem) of -0.347.

`Cc1c(O)c(=O)ccn1CCO` [3-hydroxy-1-(2'-hydroxyethyl)-2-methylpyrid-4-one] showed a logD at 100 µM [1] of less than -2.7.

In the case of `Cc1c([O-])c(=O)ccn1CCCCO.Cc1c([O-])c(=O)ccn1CCCCO.Cc1c([O-])c(=O)ccn1CCCCO.[Fe+3]` [Fe^III complex of 3-hydroxy-1-(4'-hydroxybutyl)-2-methylpyrid-4-one], the “Amount of complex entering erythrocytes” value (human erythrocytes) is reported as 40 n.mole.

In the case of `Cc1c([O-])c(=O)ccn1CCC(=O)O.Cc1c([O-])c(=O)ccn1CCC(=O)O.Cc1c([O-])c(=O)ccn1CCC(=O)O.[Fe+3]` [Fe^III complex of 1-(2'-carboxyethyl)-3-hydroxy-2-methylpyrid-4-one], the “Amount of complex entering erythrocytes” value (human erythrocytes) is reported as 19 n.mole.

With `CC(=O)n1cccc(O)c1=O` [1-acetyl-3-hydroxypyrid-2-one] the logD at 100 µM (physchem) was -0.26.

For `Cc1c([O-])c(=O)ccn1CCN.Cc1c([O-])c(=O)ccn1CCN.Cc1c([O-])c(=O)ccn1CCN.[Fe+3]` [Fe^III complex of 1-(2'-aminoethyl)-3-hydroxy-2-methylpyrid-4-one], the “Amount of complex entering erythrocytes” value (human erythrocytes) was less than 5 n.mole and the “Kpart values (in words)” value [1] was “low Kpart values”.

Molecule `Cc1c(O)c(=O)ccn1CCCCCO` [3-hydroxy-1-(5'-hydroxypentyl)-2-methylpyrid-4-one] has a logD at 100 µM (physchem) of -0.553.

For `O=C([O-])[C@H](O)[C@@H](O)[C@H](O)[C@H](O)CO.O=C([O-])[C@H](O)[C@@H](O)[C@H](O)[C@H](O)CO.[Fe+2]` [Fe^II gluconate], the “Relative Iron Uptake” value (inverted rat jejunal sac) was 1.6.

For `CCNC(=O)Cn1cccc(O)c1=O` [1-(N-ethylcarbamoylmethyl)-3-hydroxypyrid-2-one], the “Partition coefficient KOUT, free compound” value [1] was 0.12.

With `CCCNC(=O)Cn1cccc(O)c1=O` [3-hydroxy-1-(N-propylcarbamoylmethyl)-pyrid-2-one] the “Partition coefficient KOUT, free compound” value [1] was 0.35.

In the case of `Cc1c([O-])c(=O)ccn1CCO.Cc1c([O-])c(=O)ccn1CCO.Cc1c([O-])c(=O)ccn1CCO.[Fe+3]` [Fe^III complex of 3-hydroxy-1-(2'-hydroxyethyl)-2-methylpyrid-4-one], the “Amount of complex entering erythrocytes” value (human erythrocytes) is reported as less than 5 n.mole.

With `CCn1cc(O)c(=O)cc1CO` [1-ethyl-3-hydroxy-6-hydroxymethylpyrid-4-one] the logD at 100 µM (physchem) was -1.22.

With `CC(=O)n1cccc([O-])c1=O.CC(=O)n1cccc([O-])c1=O.CC(=O)n1cccc([O-])c1=O.[Fe+3]` [Fe^III complex of 1-acetyl-3-hydroxypyrid-2-one] the haemoglobin binding ability (haemoglobin) was “no detectable haemoglobin binding ability”, the “iron removed from the iron complex” value (apotransferrin) was “over 80%” and the “Amount of complex entering erythrocytes” value (human erythrocytes) was 240 n.mole.

In the case of `O=C(O)Cn1cccc([O-])c1=O.O=C(O)Cn1cccc([O-])c1=O.O=C(O)Cn1cccc([O-])c1=O.[Fe+3]` [Fe^III complex of 1-carboxymethyl-3-hydroxypyrid-2-one], the “Amount of complex entering erythrocytes” value (human erythrocytes) is reported as less than 5 n.mole.

For `CCCCNC(=O)Cn1cccc(O)c1=O` [1-(N-butylcarbamoylmethyl)-3-hydroxypyrid-2-one], the “Partition coefficient KOUT, free compound” value [1] was 1.89.

Molecule `Cc1c(O)c(=O)ccn1CCC(=O)O` [1-(2'-carboxyethyl)-3-hydroxy-2-methylpyrid-4-one] has a logD at 100 µM (physchem) of -0.347.

`CCOC(=O)Cn1cccc(O)c1=O` [1-ethoxycarbonylmethyl-3-hydroxypyrid-2-one] showed a logD at 100 µM (physchem) of -0.301.

With `Cc1c(O)c(=O)ccn1CCCCO` [3-hydroxy-1-(4'-hydroxybutyl)-2-methylpyrid-4-one] the logD at 100 µM [1] was -0.854.

In the case of `Cc1c([O-])c(=O)ccn1CCCCCO.Cc1c([O-])c(=O)ccn1CCCCCO.Cc1c([O-])c(=O)ccn1CCCCCO.[Fe+3]` [Fe^III complex of 3-hydroxy-1-(5'-hydroxypentyl)-2-methylpyrid-4-one], the “Amount of complex entering erythrocytes” value (human erythrocytes) is reported as 44 n.mole.
